# Measured values taken from patent US10689352B2, “Solid state forms of trisodium valsartan: sacubitril” (Teva Pharmaceuticals International GMBH, priority 2015, dated 2020).
# Legend:
# [1] = characterized according to Carr RL, Chem Eng 1965
# Experimental: Whole amount material was put in graduated cylinder. A graduated cylinder with the sample was attached to Erweka SVM tapped density tester and tapped with 1250 strikes. Volume of the powder is measured. Bulk density is measured as ratio between mass of sample (ms) and unsettled apparent volume (V0) of sample in graduated cylinder. Tap Density is measured as ratio between mass of sample (ms) and final tapped volume of sample (Vf). Compressibility index and Hausner ratio were calculated according to obtained results of bulk and tapped density.
# [2] = Circularity (morphology) by image analysis, Morphologi G3; assay type: physicochemical; settings: agglomerates, sieved through 300 μm, volume basis; e.g. as prepared according to Example 19
# Source text: As used herein, circularity refers to the ratio of the perimeter of a circle with the same area as the particle divided by the perimeter of the actual particle image. Circularity is preferably determined by measurement of the particles following sieving through a sieve having a pore size of 300 μm. The particles are preferably measured following analysis of photographs of the particles at an appropriate magnification (e.g. 2.5 to 5.0 times magnification). More particularly, the sample is analyzed using Morphologi G3 instrumentation. The collected data can be processed using image analysis. Circularity is a ratio of the perimeter of a circle with the same area as the particle divided by the perimeter of the actual particle image.
# Sample was sieved through a sieve with pore size 300 μm. The sieved material was dispersed on the glass surface at 0.5 bar and then images were taken at 2.5-5.0× magnification using Morphologi G3 (Malvern). Collected data was processed using image analysis. Circularity is a ratio of the perimeter of a circle with the same area as the particle divided by the perimeter of the actual particle image.
# [3] = Storage stability (chemical and polymorphic); assay type: physicochemical
# Source text: A crystalline form according to Paragraph 2, which is characterized by an X-ray powder diffraction pattern having peaks at 5.8, 7.3, 12.9, 15.9, 16.5 and 18.6 degrees two theta±0.2 degrees two theta and also having any one, any two, any three or more additional peaks selected from: 4.3, 9.4, 10.0, 10.9 and 14.7 two theta±0.2 degrees two theta. • 4. A crystalline form according to Paragraph 2, which is characterized by the X-ray powder diffraction pattern having peaks at 7.3, 16.5, 9.4, 10.9 and 14.7 two theta±0.2 degrees two theta and also having any one, any two, any three or more additional peaks selected from: 4.3, 5.8, 10.0, 12.9, 15.9 and 18.6 two theta±0.2 degrees two theta and optionally further characterized by an FTIP spectrum as depicted in FIG. 6. • 5. A crystalline form according to Paragraph 1 or Paragraph 2, which is characterized by the X-ray powder diffraction pattern having peaks at 4.3, 5.8, 7.3, 9.4, 10.0, 10.9, 12.9, 14.7, 15.9, 16.5, and 18.6 two theta±0.2 degrees two theta±0.2 degrees two theta. • 6. A crystalline form according to Paragraph 5, which is further characterized by X-ray powder diffraction d-spacings at: 20.341, 15.261, 12.068, 9.397, 8.826, 8.092, 6.863, 6.024, 5.583, 5.353 and 4.773 Å±0.1 Å. • 7. A crystalline form according to any of Paragraphs 1, 2, 3 or 4, further characterized by an X-ray powder diffraction pattern having one, two, three, four five, or more than 5 additional peaks selected from: 4.3, 5.0, 5.5, 5.8, 7.3, 8.5, 8.9, 9.4, 10.0, 10.9, 11.6, 12.9, 13.7, 13.9, 14.7, 14.8, 15.1, 15.3, 15.9, 16.5, 17.3, 17.6, 18.6, 19.1, 19.5, 20.3, 21.2, 21.9 and 23.1 degrees two theta±0.2 degrees two theta. • 8. A crystalline form according to any of Paragraphs 1, 2, 3, 4, 5, 6 or 7, which is characterized by an X-ray powder diffraction pattern having peaks at: 4.3, 5.0, 5.5, 5.8, 7.3, 8.5, 8.9, 9.4, 10.0, 10.9, 11.6, 12.9, 13.7, 13.9, 14.7, 14.8, 15.1, 15.3, 15.9, 16.5, 17.3, 17.6, 18.6, 19.1, 19.5, 20.3, 21.2, 21.9 and 23.1 degrees two theta±0.2 degrees two theta. • 9. A crystalline form according to Paragraph 8, which is further characterized by the absence of any peak (defined as relative intensity I/Io of less than 1%) between any of two neighboring peaks. • 10. A crystalline form according to any of Paragraphs 1, 2, 3, 4, 5, 6, 7, 8 or 9, further characterized by an X-ray powder diffraction pattern as depicted in FIG. 1 or FIG. 14 and/or a solid state ^13C NMR as depicted in FIG. 5. • 11. A crystalline form according to any of Paragraphs 1, 2, 3, 4, 5, 6, 7, 8, 9 or 10, further characterized by a DSC as depicted in FIG. 2. • 12. A crystalline form according to any of Paragraphs 2-11 further characterized by a solid state ^13C NMR spectrum having peaks at 176.8, 161.9, 141.1, 139.5, 138.6, 137.2, 129.3, 128.7, 126.3, 124.9, 64.2, 60.6, 47.5, 46.1, 40.1, 39.0, 38.1, 34.3, 32.7, 29.8, 28.2, 22.4, 20.2, 17.8, 16.5, 13.7, 11.7 ppm±0.2 ppm. • 13. […] A crystalline form according to any of Paragraphs 1, 2, 3, 4, 5, 6, 7, 8, 9, 10, 11, 12, 13, 14 or 15, which is a hydrate, preferably wherein the crystalline form contains from 5.2 to 5.7 wt % water. • 17. A crystalline form according to any of Paragraphs 1, 2, 3, 4, 5, 6, 7, 8, 9, 10, 11, 12, 13, 14, 15 or 16, comprising agglomerates having spherical morphology, preferably wherein: at least 50%, at least 60%, at least 70%, at least 80% or at least 90% of the agglomerates have spherical morphology, preferably wherein the circularity of at least 50% (preferably: at least 60%, at least 70%, at least 80% or at least 90%) of the particles on a volume basis is: greater than or equal to about 0.85, about 0.86 to 1, about 0.88 to about 0.98, about 0.90 to about 0.96, about 0.92 to about 0.96. • 18. […] A process according to any of Paragraphs 18 or 19, wherein the solution in step (i) is prepared by heating, preferably to a temperature of about 80° C. to about 150° C., about 90° C. to about 130° C. • 21. […]
substance,measurement,setting,value
trisodium valsartan:sacubitril [Form II],flow properties,[1],good-excellent
same,circularity (v0.5),[2],greater than 0.85
same,chemical and polymorphic stability,"[3]; protected from moisture, stored at 25° C./60% RH",chemically and polymorphically stable
same,chemical and polymorphic stability,"[3]; protected from moisture, stored at 40° C./75% RH",chemically and polymorphically stable
same,chemical and polymorphic stability,"[3]; protected from moisture, stored at 50° C.",chemically and polymorphically stable
same,chemical and polymorphic stability,"[3]; protected from moisture, stored at 50° C./80% RH",chemically and polymorphically stable
same,chemical and polymorphic stability,[3]; stored for 8 weeks at 25° C./60% RH,chemically and polymorphically stable
same,chemical and polymorphic stability,[3]; stored for 8 weeks at 50° C.,chemically and polymorphically stable
